Some targets named below: SGK3 (Homo sapiens, UniProt Q96BR1); MYO3B (Homo sapiens, UniProt Q8WXR4); ACVRL1 (Homo sapiens, UniProt P37023); FLT3(D835H) (Homo sapiens, UniProt P36888, D835H); CSNK1E (Homo sapiens, UniProt P49674); MARK3 (Homo sapiens, UniProt P27448); EGFR(L861Q) (Homo sapiens, UniProt P00533, L861Q); CASK (Homo sapiens, UniProt O14936); NEK2 (Homo sapiens, UniProt P51955); BMPR1A (Homo sapiens, UniProt P36894); GSK3B (Homo sapiens, UniProt P49841); PRKCH (Homo sapiens, UniProt P24723); MYLK2 (Homo sapiens, UniProt Q9H1R3); CAMK2A (Homo sapiens, UniProt Q9UQM7).

What all share (assay): biochemical
What all share (design): KINOMEscan active-site competition binding, percent of control (100 = no competition)
Conditions in all cases: competition binding, percent control

The target of assay [1] is T1, RPS6KA5(Kin.Dom.2-C-terminal) (Homo sapiens, UniProt O75582).
T1 construct: Kin.Dom.2-C-terminal

The target in the next assay is T2, MLCK (Homo sapiens, UniProt Q32MK0).
T2 construct: gene MYLK3
T2 sequence (Q32MK0 whole entry): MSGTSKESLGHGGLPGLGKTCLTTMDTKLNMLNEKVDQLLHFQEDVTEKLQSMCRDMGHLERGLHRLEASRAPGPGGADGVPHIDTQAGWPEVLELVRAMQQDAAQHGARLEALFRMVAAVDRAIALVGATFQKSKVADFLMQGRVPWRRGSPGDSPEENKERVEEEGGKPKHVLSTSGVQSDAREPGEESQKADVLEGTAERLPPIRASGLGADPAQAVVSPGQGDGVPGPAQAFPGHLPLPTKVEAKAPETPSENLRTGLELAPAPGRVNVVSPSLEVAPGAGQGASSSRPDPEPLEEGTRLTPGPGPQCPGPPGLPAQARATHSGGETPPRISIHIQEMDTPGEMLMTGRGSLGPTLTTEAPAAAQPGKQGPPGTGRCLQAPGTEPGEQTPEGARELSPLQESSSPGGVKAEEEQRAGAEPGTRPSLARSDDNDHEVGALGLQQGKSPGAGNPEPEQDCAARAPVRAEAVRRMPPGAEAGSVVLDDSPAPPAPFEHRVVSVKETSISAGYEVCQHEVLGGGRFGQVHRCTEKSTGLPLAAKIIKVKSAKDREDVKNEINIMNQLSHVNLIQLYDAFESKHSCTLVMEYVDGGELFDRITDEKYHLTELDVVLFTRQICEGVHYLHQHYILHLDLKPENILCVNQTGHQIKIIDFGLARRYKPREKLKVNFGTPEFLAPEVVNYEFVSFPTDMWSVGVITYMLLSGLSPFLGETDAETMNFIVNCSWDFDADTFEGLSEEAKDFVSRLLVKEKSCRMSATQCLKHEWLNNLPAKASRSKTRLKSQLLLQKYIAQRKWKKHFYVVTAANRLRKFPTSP

Assay [2] concerns the target T3, JAK3(JH1domain-catalytic) (Homo sapiens, UniProt P52333).
T3 construct: JH1domain-catalytic

In a further assay the target is T4, LKB1 (Homo sapiens, UniProt Q15831).
T4 construct: gene STK11

Assay [3] has as its target T5, ABL1(F317L)-nonphosphorylated (Homo sapiens, UniProt P00519, F317L).
T5 construct: nonphosphorylated

For the next assay, the target named is T6, QSK (Homo sapiens, UniProt Q9Y2K2).
T6 construct: gene SIK3

A further assay addresses T7, DLK (Homo sapiens, UniProt Q12852).
T7 construct: gene MAP3K12

The target of another assay is T8, MST3 (Homo sapiens, UniProt Q9Y6E0).
T8 construct: gene STK24
T8 sequence (Q9Y6E0 whole entry): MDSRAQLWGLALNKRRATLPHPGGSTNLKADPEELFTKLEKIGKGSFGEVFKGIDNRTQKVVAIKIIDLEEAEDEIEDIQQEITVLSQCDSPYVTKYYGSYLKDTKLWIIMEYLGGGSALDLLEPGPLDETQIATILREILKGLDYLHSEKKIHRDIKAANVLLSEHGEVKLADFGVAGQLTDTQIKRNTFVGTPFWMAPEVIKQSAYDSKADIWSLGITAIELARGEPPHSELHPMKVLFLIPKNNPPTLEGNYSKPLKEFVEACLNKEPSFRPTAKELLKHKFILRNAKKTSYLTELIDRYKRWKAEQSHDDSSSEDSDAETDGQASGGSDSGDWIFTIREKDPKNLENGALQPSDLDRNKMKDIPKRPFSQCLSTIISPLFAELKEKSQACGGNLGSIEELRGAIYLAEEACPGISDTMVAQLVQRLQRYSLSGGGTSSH

The target in another assay is T9, AMPK-alpha2 (Homo sapiens, UniProt P54646).
T9 construct: gene PRKAA2
T9 sequence (P54646 whole entry): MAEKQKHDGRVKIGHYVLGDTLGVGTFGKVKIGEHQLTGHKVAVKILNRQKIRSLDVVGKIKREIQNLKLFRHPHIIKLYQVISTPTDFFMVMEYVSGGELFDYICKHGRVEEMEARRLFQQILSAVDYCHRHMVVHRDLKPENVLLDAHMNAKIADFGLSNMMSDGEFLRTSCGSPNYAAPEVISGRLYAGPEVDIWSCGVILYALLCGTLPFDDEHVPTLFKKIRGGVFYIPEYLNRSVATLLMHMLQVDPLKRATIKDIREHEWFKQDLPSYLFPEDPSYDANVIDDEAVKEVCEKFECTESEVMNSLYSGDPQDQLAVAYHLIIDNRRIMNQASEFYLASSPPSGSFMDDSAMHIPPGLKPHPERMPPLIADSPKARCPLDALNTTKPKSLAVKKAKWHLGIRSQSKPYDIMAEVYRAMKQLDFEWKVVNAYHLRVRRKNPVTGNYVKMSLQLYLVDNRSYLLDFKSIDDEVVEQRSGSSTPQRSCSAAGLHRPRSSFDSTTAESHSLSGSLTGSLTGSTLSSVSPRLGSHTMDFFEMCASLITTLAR

2 molecules from PMC4770715, “LIM kinase inhibitors disrupt mitotic microtubule organization and impair tumor cell proliferation” (Oncotarget, 2015) can be followed below.

Sequence of MYLK2 (Q9H1R3 whole entry): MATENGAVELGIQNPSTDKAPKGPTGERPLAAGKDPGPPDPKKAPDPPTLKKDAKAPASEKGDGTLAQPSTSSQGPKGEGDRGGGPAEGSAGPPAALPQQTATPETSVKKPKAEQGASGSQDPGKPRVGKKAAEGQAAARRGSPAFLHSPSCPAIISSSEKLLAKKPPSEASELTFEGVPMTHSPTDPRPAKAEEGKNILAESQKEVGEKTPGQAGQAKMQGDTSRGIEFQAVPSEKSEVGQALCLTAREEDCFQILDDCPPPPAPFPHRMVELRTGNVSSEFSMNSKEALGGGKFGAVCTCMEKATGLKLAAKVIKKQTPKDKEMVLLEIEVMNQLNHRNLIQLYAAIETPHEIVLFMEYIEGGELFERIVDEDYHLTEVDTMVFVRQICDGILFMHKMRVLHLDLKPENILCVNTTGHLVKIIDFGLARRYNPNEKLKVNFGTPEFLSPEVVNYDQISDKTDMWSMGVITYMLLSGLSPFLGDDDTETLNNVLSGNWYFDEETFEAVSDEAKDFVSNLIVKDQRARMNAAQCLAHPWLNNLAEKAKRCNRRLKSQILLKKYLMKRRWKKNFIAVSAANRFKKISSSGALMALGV
Sequence of MARK3 (P27448 whole entry): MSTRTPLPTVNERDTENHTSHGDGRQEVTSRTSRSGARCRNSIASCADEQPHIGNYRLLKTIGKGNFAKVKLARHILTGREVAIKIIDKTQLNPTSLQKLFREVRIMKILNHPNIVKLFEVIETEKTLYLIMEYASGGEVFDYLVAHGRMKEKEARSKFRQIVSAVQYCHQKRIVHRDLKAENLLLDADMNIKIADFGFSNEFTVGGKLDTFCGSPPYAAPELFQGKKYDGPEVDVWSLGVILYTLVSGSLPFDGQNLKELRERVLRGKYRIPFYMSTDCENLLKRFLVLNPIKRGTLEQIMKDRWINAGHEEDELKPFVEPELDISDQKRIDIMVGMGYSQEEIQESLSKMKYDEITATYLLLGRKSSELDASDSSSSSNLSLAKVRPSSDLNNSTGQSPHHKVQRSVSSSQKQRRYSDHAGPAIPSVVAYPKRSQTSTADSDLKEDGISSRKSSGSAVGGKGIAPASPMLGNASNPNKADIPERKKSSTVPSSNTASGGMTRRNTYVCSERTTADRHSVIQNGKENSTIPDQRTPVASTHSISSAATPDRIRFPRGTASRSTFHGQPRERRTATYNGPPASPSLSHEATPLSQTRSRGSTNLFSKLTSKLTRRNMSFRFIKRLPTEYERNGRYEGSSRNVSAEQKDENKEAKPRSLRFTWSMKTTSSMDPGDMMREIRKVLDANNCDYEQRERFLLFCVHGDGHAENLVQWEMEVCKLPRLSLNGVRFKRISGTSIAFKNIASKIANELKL
Sequence of CASK (O14936 whole entry): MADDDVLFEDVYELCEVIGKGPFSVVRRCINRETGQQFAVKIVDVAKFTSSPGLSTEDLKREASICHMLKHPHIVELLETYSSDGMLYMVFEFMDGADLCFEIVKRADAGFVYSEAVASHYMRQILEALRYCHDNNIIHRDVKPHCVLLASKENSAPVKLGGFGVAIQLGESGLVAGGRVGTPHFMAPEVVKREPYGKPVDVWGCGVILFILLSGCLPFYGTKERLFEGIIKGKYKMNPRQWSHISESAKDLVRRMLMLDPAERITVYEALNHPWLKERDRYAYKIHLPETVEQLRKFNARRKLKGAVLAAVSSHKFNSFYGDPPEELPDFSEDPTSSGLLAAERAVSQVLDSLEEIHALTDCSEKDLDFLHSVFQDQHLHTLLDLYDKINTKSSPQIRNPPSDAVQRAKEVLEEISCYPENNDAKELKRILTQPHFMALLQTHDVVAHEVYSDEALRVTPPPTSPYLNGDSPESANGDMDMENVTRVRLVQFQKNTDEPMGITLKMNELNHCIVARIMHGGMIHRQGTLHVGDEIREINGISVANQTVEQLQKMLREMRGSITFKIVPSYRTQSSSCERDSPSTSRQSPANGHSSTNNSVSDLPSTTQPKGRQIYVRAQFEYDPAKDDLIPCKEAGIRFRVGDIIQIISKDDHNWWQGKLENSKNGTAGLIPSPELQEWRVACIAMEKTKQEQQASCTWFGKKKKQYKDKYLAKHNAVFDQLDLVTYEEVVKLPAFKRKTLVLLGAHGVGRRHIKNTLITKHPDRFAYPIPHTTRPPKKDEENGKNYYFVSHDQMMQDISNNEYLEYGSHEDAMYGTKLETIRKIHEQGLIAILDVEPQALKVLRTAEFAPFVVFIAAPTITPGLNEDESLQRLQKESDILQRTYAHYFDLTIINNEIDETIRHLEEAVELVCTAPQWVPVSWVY
T7 sequence (Q12852 whole entry): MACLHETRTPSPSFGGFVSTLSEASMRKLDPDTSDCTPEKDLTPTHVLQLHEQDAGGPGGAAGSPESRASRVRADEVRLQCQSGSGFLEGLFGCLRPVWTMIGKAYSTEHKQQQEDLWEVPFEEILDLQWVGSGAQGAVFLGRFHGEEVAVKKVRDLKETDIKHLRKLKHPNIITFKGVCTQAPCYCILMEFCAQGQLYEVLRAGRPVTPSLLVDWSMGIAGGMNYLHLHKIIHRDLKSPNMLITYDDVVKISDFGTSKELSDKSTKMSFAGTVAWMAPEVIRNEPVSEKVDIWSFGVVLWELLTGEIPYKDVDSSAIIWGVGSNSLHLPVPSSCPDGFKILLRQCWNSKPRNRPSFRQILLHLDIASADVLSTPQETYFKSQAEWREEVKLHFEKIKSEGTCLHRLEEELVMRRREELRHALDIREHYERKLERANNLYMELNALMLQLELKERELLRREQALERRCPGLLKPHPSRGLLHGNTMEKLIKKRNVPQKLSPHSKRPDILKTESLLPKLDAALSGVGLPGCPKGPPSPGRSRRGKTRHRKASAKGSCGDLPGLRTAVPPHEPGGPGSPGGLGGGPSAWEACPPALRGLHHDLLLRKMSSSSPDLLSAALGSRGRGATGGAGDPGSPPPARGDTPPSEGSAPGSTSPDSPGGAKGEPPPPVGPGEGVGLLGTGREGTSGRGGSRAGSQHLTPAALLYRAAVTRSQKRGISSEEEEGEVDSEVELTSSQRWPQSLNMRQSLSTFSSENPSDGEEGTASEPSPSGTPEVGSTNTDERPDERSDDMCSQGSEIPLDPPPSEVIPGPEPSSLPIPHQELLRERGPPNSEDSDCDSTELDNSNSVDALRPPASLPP

Turning to `COc1ccc(-c2cnccc2-c2cnc(NC(=O)C(C)C)s2)c(C(F)(F)F)c1` [CRT0105446, N-{5-[3-(4-Methoxy-2-trifluoromethyl-phenyl)-pyridin-4-yl]-hiazol-2-yl}-isobutyramide], the remaining binding at 10 µM is 95% on SGK3; 86% in assay [1]; 100% on MYO3B; 100% at ACVRL1; 90% on MLCK; 15% at FLT3(D835H). Further, the remaining binding at 10 µM worked out at 42% at CSNK1E; 78% at MARK3; 100% on EGFR(L861Q); 1.2% on CASK; 100% at NEK2; 100% at BMPR1A. In addition, the remaining binding at 10 µM came out at 82% on GSK3B; 100% on PRKCH; 100% in assay [2]; 49% at MYLK2; 100% at LKB1; 92% in assay [3]. Also, the remaining binding at 10 µM came to 100% on QSK; 100% on DLK; 82% on CAMK2A; 72% on MST3; 3.9% on AMPK-alpha2.
Take `Cc1ccc(-c2cnccc2-c2cnc(Nc3ccc(O)cc3)s2)c(Cl)c1` [CRT0105950, 4-{5-[3-(2-Chloro-4-methyl-phenyl)-pyridin-4-yl]-thiazol-2-ylamino}-phenol]: the remaining binding at 10 µM is 72% at SGK3; 89% in assay [1]; 90% at MYO3B; 100% at ACVRL1; 14% on MLCK; 0.95% at FLT3(D835H). The remaining binding at 10 µM was found to be 11% at CSNK1E; 51% on MARK3; 65% on EGFR(L861Q); 13% at CASK; 82% on NEK2; 91% at BMPR1A. The remaining binding at 10 µM at GSK3B is 86%; at PRKCH it was 49%; in [2], 33%; on MYLK2, 49%; at LKB1 it was 79%; in [3], 86%. Besides, the remaining binding at 10 µM was found to be 72% on QSK; 100% at DLK; 33% on CAMK2A; 40% on MST3; 2% at AMPK-alpha2.
